This note sets out measurements from ChEMBL document CHEMBL1139098, “3H-[1,2,4]-Triazolo[5,1-i]purin-5-amine derivatives as adenosine A2A antagonists” (Bioorg Med Chem Lett, 2007).

The species named for one series is Homo sapiens. In words: Selectivity for human adenosine A2A receptor over human adenosine A1 receptor.
The next series addresses Adenosine receptor A2a (Homo sapiens, UniProt P29274). In words: Antagonist activity at human adenosine A2A receptor. In kind it is functional.
Series [1] relates to Rattus norvegicus. The series can be described thus: Effect on rat catalepsy model at 3 mg/kg, po after 4 hrs. In kind it is functional.
The test system of series [2] is Rattus norvegicus. In words: Effect on rat catalepsy model at 3 mg/kg, po after 1 hr. It counts as functional.
Series [3] concerns Rattus norvegicus. In words: Effect on rat catalepsy model at 1 mg/kg, po after 1 hr. It counts as functional.
Series [4] relates to Rattus norvegicus. In words: Effect on rat catalepsy model at 1 mg/kg, po after 4 hrs. In kind it is functional.
Series [5] can be described thus: AUC in rat catalepsy model at 3.0 mg/kg, po. It counts as ADME, organism-based. The arrangement: dose 3 mg/kg, route oral. The following applies: in vivo.

Adenosine receptor A2a, sequence (P29274 whole entry): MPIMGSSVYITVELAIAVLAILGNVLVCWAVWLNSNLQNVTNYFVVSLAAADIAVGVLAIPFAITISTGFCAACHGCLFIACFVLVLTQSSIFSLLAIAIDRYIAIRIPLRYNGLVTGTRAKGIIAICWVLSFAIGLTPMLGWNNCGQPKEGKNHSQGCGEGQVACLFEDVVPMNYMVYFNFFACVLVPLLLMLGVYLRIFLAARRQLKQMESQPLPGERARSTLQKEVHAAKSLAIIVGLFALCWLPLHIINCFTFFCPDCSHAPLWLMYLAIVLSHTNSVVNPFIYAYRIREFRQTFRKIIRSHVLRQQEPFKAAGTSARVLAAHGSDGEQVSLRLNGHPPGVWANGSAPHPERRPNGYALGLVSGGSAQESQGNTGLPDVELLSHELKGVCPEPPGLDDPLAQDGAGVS

Consider `Nc1nc2c(ncn2CCN2CCN(c3cccc(Cl)c3)CC2)c2nc(-c3ccco3)nn12`, for which, in the series filed under Homo sapiens, the Selectivity ratio is 371. Affinity on Adenosine receptor A2a was put at a Ki of 0.4 nM.
Regarding `COCCOc1ccc(N2CCN(CCn3cnc4c3nc(N)n3nc(-c5ccco5)nc43)CC2)c(F)c1`, in the series listed under Homo sapiens, the Selectivity ratio stood at 517. The molecule also gave a Ki at Adenosine receptor A2a of 0.8 nM.
Consider `Nc1nc2c(ncn2Cc2ccccc2Br)c2nc(-c3ccco3)nn12`, for which the Selectivity ratio in the series listed under Homo sapiens came out at 7. Besides, at Adenosine receptor A2a, the affinity, expressed as Ki, was 4.6 nM.
For `Nc1nc2c(ncn2Cc2ccccc2C(F)(F)F)c2nc(-c3ccco3)nn12` the same measures were 30 and 4.6 nM.
For the molecule `Nc1nc2c(ncn2CCN2CCN(c3ncc(F)cn3)CC2)c2nc(-c3ccco3)nn12`, in the series filed under Homo sapiens, the Selectivity ratio is 378. The Ki at Adenosine receptor A2a was 1.4 nM.
For `Nc1nc2c(ncn2Cc2ccccc2Cl)c2nc(-c3ccco3)nn12`, in that order: 9 and 1.7 nM.
For `Cc1ccc(N2CCN(CCn3cnc4c3nc(N)n3nc(-c5ccco5)nc43)CC2)nc1`, in that order: 162 and 1 nM.
For `Nc1nc2c(ncn2CCN2CCN(c3ccc(F)cc3F)CC2)c2nc(-c3ccco3)nn12`, in that order: 88 and 0.7 nM.
Consider `Nc1nc2c(ncn2Cc2ccccc2)c2nc(-c3ccco3)nn12`, for which, in the series filed under Homo sapiens, the Selectivity ratio is 17. Further, the affinity at Adenosine receptor A2a, expressed as Ki, was 1.5 nM.
Regarding `Nc1nc2c(ncn2CCN2CCN(c3nccs3)CC2)c2nc(-c3ccco3)nn12`, the Selectivity ratio in the series filed under Homo sapiens was determined as 138. Also, the Ki at Adenosine receptor A2a came out at 1.7 nM.
Regarding `COCCOc1ccc(N2CCN(CCn3cnc4c3nc(N)n3nc(-c5ccccc5)nc43)CC2)cc1`, in the series filed under Homo sapiens, the Selectivity ratio was 91. The same molecule registered an inhibition constant Ki at Adenosine receptor A2a of 3.7 nM.
For `COc1ccc(N2CCN(CCn3cnc4c3nc(N)n3nc(-c5ccco5)nc43)CC2)cc1`, in that order: 1700 and 0.1 nM.
With `COCCOc1ccc(N2CCN(CCn3cnc4c3nc(N)n3nc(-c5cccc[n+]5[O-])nc43)CC2)cc1`, the Selectivity ratio in the series listed under Homo sapiens amounted to 17. At Adenosine receptor A2a, this molecule returned a Ki of 89.7 nM.
For `Nc1nc2c(ncn2CCN2CCN(c3ccccc3)CC2)c2nc(-c3ccco3)nn12` the same measures were 182 and 1.7 nM.
For `COCCOc1ccc(N2CCN(CCn3cnc4c3nc(N)n3nc(-c5ccccc5C(F)(F)F)nc43)CC2)cc1`, in that order: 181 and 10 nM.
`COCCOc1ccc(N2CCN(CCn3cnc4c3nc(N)n3nc(-c5ccccn5)nc43)CC2)cc1`: the Selectivity ratio in the series listed under Homo sapiens worked out at 108. Further, at Adenosine receptor A2a, the Ki was determined as 12.6 nM.
For `Nc1nc2c(ncn2CCN2CCC(c3ccc(F)cc3)CC2)c2nc(-c3ccco3)nn12`, in that order: 196 and 0.9 nM.
For `Nc1nc2c(ncn2CCc2ccccc2)c2nc(-c3ccco3)nn12`, the Selectivity ratio in the series listed under Homo sapiens was 33. The same molecule yielded a Ki at Adenosine receptor A2a of 4.1 nM.
For `COCCOc1ccc(N2CCN(CCn3cnc4c3nc(N)n3nc(-c5cccc(F)c5)nc43)CC2)cc1` the same measures were 83 and 2 nM.
`COCCOc1ccc(N2CCN(CCn3cnc4c3nc(N)n3nc(-c5ccco5)nc43)CC2)cc1`: the Activity in the series with Rattus norvegicus [1] is given as 50%; in the series with Rattus norvegicus [2], 80%; in the series with Rattus norvegicus [3], 55%; in the series with Rattus norvegicus [4], 50%. Moreover, the Selectivity ratio in the series filed under Homo sapiens amounted to 669. The molecule also displayed a Ki at Adenosine receptor A2a of 0.9 nM. Moreover, the AUC in series [5] is 524 ng·h/mL.
As for `COCCOc1ccc(N2CCN(CCn3cnc4c3nc(N)n3nc(-c5ccccc5F)nc43)CC2)cc1`, the Selectivity ratio in the series listed under Homo sapiens was determined as 15. On Adenosine receptor A2a, this molecule displayed an inhibition constant Ki of 9.3 nM.
Take `CCCn1cnc2c1nc(N)n1nc(-c3ccco3)nc21`: in the series filed under Homo sapiens, the Selectivity ratio came to 50. This molecule also returned a Ki on Adenosine receptor A2a of 5.9 nM.
`Nc1nc2c(ncn2CCN2CCOCC2)c2nc(-c3ccco3)nn12`: the Selectivity ratio in the series filed under Homo sapiens was 37. In addition, the affinity on Adenosine receptor A2a corresponds to a Ki of 6.3 nM.
In the case of `COCCOc1ccc(N2CCN(CCn3cnc4c3nc(N)n3nc(-c5ccco5)nc43)CC2)c(C(F)(F)F)c1`, the Selectivity ratio in the series filed under Homo sapiens came to 218. Moreover, the Ki at Adenosine receptor A2a was 0.4 nM.
In the case of `Nc1nc2c(ncn2CCN2CCN(c3ccc(Cl)cn3)CC2)c2nc(-c3ccco3)nn12`, the Selectivity ratio in the series filed under Homo sapiens came to 333. Further, the Ki on Adenosine receptor A2a is 0.9 nM.
On to `Nc1nc2c(ncn2CCN2CCN(c3ccc(Cl)cc3F)CC2)c2nc(-c3ccco3)nn12`, for which the Selectivity ratio in the series listed under Homo sapiens is 403. Moreover, at Adenosine receptor A2a, affinity was put at a Ki of 0.3 nM.
For the molecule `COCCOc1ccc(N2CCN(CCn3cnc4c3nc(N)n3nc(-c5ccccc5C)nc43)CC2)cc1`, in the series listed under Homo sapiens, the Selectivity ratio is 76. The Ki at Adenosine receptor A2a is 20.5 nM.
For `COCCOc1ccc(C2CCN(CCn3cnc4c3nc(N)n3nc(-c5ccco5)nc43)CC2)cc1`, the Selectivity ratio in the series listed under Homo sapiens came out at 519. In addition, the Ki at Adenosine receptor A2a is 0.7 nM.
